“Also recorded” adds a separate entry of the source. Where a name gives a salt, the structure may show the parent alone. Read-outs that look alike come from different tables or passages of the source.
How the values were obtained:
[1] = tested on: Plasmodium berghei KBG 173; assay: Survival of malaria infected mice, compound of Synthesis Example 2, halofantrine or mefloquine; type: in vivo, Plasmodium berghei KBG 173 in ICR/HA Swiss mice
[2] = tested on: Plasmodium berghei KBG 173; assay: Mean parasitemias for mice treated with the compound of Synthesis Example 2; type: in vivo, Plasmodium berghei KBG 173 in ICR/HA Swiss mice
[3] = Toxicity in malaria infected mice; type: in vivo, ICR/HA Swiss mice; settings: 256 mg/kg/day
Text: (§1) Utilizing young ICR/HA Swiss mice and a standard inoculum of Plasmodium berghei KBG 173, it was possible to produce a uniform disease fatal to […] of untreated animals within 6 to 8 days with a mean survival time of 6.2 days. Test animals weighed from 18 to 22 grams but weight variations in any given experimental or control group were confined to 2-3 grams. All animals in any given test were approximately of the same age. Animals on test were housed in metal-topped plastic cages, given a standard laboratory diet and water ad libitum.
(§2) Test animals received an intraperitoneal injection of 0.5 ml of 1:100 dilution of heparinized heart's blood with a minimum of 90% parasitized cells (4×10^7 cells), drawn from donor mice infected one week earlier with Plasmodium berghei. The donor strain was maintained by weekly passages in separate groups of mice inoculated with a 0.5 ml of 1:500 dilution of heparinized heart's blood.
Test compounds were administered after dissolution or suspension in peanut oil. A single dose was given subcutaneously 72 hours after the mice were infected with Plasmodium berghei. At this time a 10-15 percent parasitemia had developed; the disease was well established but had not produced sufficient debility to alter the response of the host to toxic effects of the drug on test. […]

[4] = tested on: Plasmodium berghei KBG 173; assay: Survival of mice infected with drug-sensitive malaria, compound of Synthesis Example 3, halofantrine or mefloquine; type: in vivo, Plasmodium berghei KBG 173 in ICR/HA Swiss mice; settings: SC
Text: The protocol which is set forth below is a well-established model for the treatment of malaria in human beings, and has been adopted by the U.S. Army Medial Research Command.
The system used for the compounds formed in Synthesis Examples 2 and 3 was based on comparisons of responses to test compounds by Plasmodium berghei KBG 173 malaria in mice as expressed in mean survival times and the mean survival times of untreated controls. Thus, compounds noted as active produced increases in the survival times of the treated animals that are significant when compared with the survival times of untreated controls. Since an established disease is less sensitive to treatment than a disease in the early stages of development, treatment was withheld until the parasitemia was relatively high in order to ensure a more reliable assay of activity and the selection of appropriate compounds for pre-clinical studies.
as §1, §2
(§3) Test compounds were administered after dissolution or suspension in peanut oil. A single dose was given subcutaneously 72 hours after the mice were infected with Plasmodium berghei. At this time a 10-15 percent parasitemia had developed; the disease was well established but had not produced sufficient debility to alter the response of the host to toxic effects of the drug on test. Since treatment was withheld for three days to permit the infection to become well-established and death occurred in untreated controls within 6-8 days, it was felt that this system presented a candidate compound with the maximum challenge.

[5] = tested on: Plasmodium berghei KBG 173; assay: as above; type: in vivo, Plasmodium berghei KBG 173 in ICR/HA Swiss mice
[6] = tested on: Plasmodium falciparum (chloroquine-sensitive and resistant strains); settings: cited from earlier work
[7] = tested on: Plasmodium falciparum FCM 29/Cameroon; assay: In vitro drug susceptibility test ([3H]hypoxanthine uptake), strain FCM 29/Cameroon; type: cell-based
Description: (§4) Three strains of P. falciparum were used. FCM 29/Cameroon was highly chloroquine- and quinine-resistant (IC50 […] and 800 nM, respectively). The strain was cloned by a dilution method. FCM 6/Thailand was moderately chloroquine-resistant (IC50 600 nM), while L-3/Ivory Coast was chloroquine-susceptible (IC50 20 nM). The continuous in vitro culture of the parasites was maintained under standard conditions, as described by W. Trager and J. B. Jensen, "Human malaria parasites in continuous culture", Science 193, 673-675 (1976), with a gas phase of 5% O2, 5% CO2, and 90% N2.
(§5) The test compound was dissolved in methanol to a concentration of 1 mg/ml. Triplicates of seven serial dilutions were prepared to obtain the final concentrations ranging from 0.4 to 25 ng/ml and distributed in 24-well plates. […]
(§6) The testing procedures used for the in vitro assay in this study were those described by J. Le Bras and P. Deloron, "In vitro study of drug sensitivity of Plasmodium falciparum: an evaluation of a new semi-microtest", American Journal of Tropical Medicine and Hygiene 32: 447-451 (1983). […] The filter discs were dried and placed in a mini-vial with 1.5 ml of liquid scintillation cocktail (OptiScint `Hisafe`, LKB, Wallac, England) and the amount of radioactivity incorporated by the parasites was measured by a liquid scintillation counter (Wallac 1410, Pharmacia, Sweden). […]

[8] = tested on: Plasmodium falciparum FCM 6/Thailand; assay: In vitro drug susceptibility test ([3H]hypoxanthine uptake), strain FCM 6/Thailand; type: cell-based; settings: mean ± SEM from four separate assays
Description: as §4, §5, §6

[9] = tested on: Plasmodium falciparum L-3/Ivory Coast; assay: In vitro drug susceptibility test ([3H]hypoxanthine uptake), strain L-3/Ivory Coast; type: cell-based; settings: two values given
Description: as §4, §5, §6

Plasmodium falciparum = assay: In vitro antimalarial activity against established lines of P. falciparum (overall statement); type: cell-based
Description: The compound of Synthesis Example 1 was tested against the established lines of Plasmodium falciparum in vitro. Halofantrine hydrochloride was used as a reference drug.
as §4
The test compound was dissolved in methanol to a concentration of 1 mg/ml. […]
as §6

[10] = tested on: P. falciparum (multi-drug resistant Vietnam Smith strain and Cambodian Buchanan strain); settings: short period, minimum of two doses; Vietnam Smith and Cambodian Buchanan strains; cited from earlier work
[11] = tested on: Chesson strain of P. vivax; settings: short period, minimum of two doses; cited from earlier work
[12] = in vivo; cited from earlier work
Plasmodium berghei = assay: Positive control group of infected mice treated with pyrimethamine; type: in vivo, Plasmodium berghei in ICR/HA Swiss mice; settings: dose levels not stated
Description: as §3

## 1,3-dichloro-6-triflurormethyl-[1-hydroxy-3-(3-phenyl-1-propylamino)propyl] phenanthrene quinate [Synthesis Example 2]
[1]; 1 mg/kg/day, PO
  number of mice alive day 21/total: 3/7
[1]; 1 mg/kg/day, SC
  number of mice alive day 21/total: 3/7
[1]; 4 mg/kg/day, PO
  number of mice alive day 21/total: 7/7
[1]; 4 mg/kg/day, SC
  number of mice alive day 21/total: 5/7
[1]; 16 mg/kg/day, PO
  number of mice alive day 21/total: 6/7
  number of mice dead/day died: 1/21
[1]; 16 mg/kg/day, SC
  number of mice alive day 21/total: 7/7
[1]; 64 mg/kg/day, PO
  number of mice alive day 21/total: 7/7
[1]; 64 mg/kg/day, SC
  number of mice alive day 21/total: 7/7
[1]; 256 mg/kg/day, PO
  number of mice alive day 21/total: 1/7
[1]; 256 mg/kg/day, SC
  number of mice alive day 21/total: 5/7
[2]; 4 mg/kg/day, oral
  mean parasitemia: 31.2
[2]; 4 mg/kg/day, subcut.
  mean parasitemia: 45.2
[2]; 16 mg/kg/day, oral
  mean parasitemia: 16.3
[2]; 16 mg/kg/day, subcut.
  mean parasitemia: 10.7
[2]; 64 mg/kg/day, oral
  mean parasitemia: 0.14
[2]; 64 mg/kg/day, subcut.
  mean parasitemia: 0.4
[2]; 256 mg/kg/day, oral
  mean parasitemia: 1.00
[2]; 256 mg/kg/day, subcut.
  mean parasitemia: 0.00
[2]; 1 (printed "l") mg/kg/day, oral
  mean parasitemia: 19.3
[2]; 1 (printed "l") mg/kg/day, subcut.
  mean parasitemia: 61.7
[3]
  toxicity: Toxicity clearly evident at this level

## OC(c1cc(C(F)(F)F)nc2c(C(F)(F)F)cccc12)C1CCCCN1 (stereo not drawn) [Mefloquine, α-2-piperidinyl-2,8-bis(trifluorormethyl)-4-quinoline methanol]
[1]; 1 mg/kg/day, PO
  number of mice alive day 21/total: 0/7
[1]; 4 mg/kg/day, PO
  number of mice alive day 21/total: 3/7
[1]; 16 mg/kg/day, PO
  number of mice alive day 21/total: 7/7
[4]; 1 mg/kg/day
  number of mice alive D + 18 / total: 0/7
[4]; 4 mg/kg/day
  number of mice alive D + 18 / total: 4/7
[4]; 16 mg/kg/day
  number of mice alive D + 18 / total: 7/7
[5]; 1 mg/kg/day, PO
  number of mice alive D + 18 / total: 0/7
[5]; 4 mg/kg/day, PO
  number of mice alive D + 18 / total: 6/7
  number of mice dead/day died: 1/16
[5]; 4 mg/kg/day, SC
  number of mice dead/day died: 3/13
[5]; 16 mg/kg/day, PO
  number of mice alive D + 18 / total: 7/7
[6]
  antimalarial activity in humans: exhibit antimalarial activity in humans against both chloroquine-sensitive and resistant strains

## CCCCNCCC(O)c1cc2c(Cl)cc(Cl)cc2c2cc(C(F)(F)F)ccc12.Cl (centres unmarked) [Synthesis Example 1, 1,3-Dichloro-6-trifluoromethyl-9-[1-hydroxy-3-(butylamino)propyl] phenanthrene hydrochloride]
[7]
  IC50: 3.5 ± 0.6 ng/mL
[8]
  IC50: 3 ± 0.2 ng/mL
[9]; Plasmodium falciparum
  IC50: 4.3 ng/mL
[9]; hydrochloride
  IC50: 4.8 ng/mL
Plasmodium falciparum; P. falciparum, reference halofantrine
  activity compared with halofantrine: slightly less than that of halofantrine
Plasmodium falciparum; chloroquine-susceptible and chloroquine-resistant strains, hydrochloride
  antimalarial activity: high antimalarial activity against both chloroquine-susceptible and chloroquine-resistant strains; also recorded: potent antimalarial action at a low nanomolar range

## Cl.OC(CCNCCCc1ccccc1)c1cc2c(Cl)cc(Cl)cc2c2cc(C(F)(F)F)ccc12 (centres unmarked) [Synthesis Example 3, 1,3-dichloro-6-trifluoromethyl-9-[1-hydroxy-3-(3-phenyl-1-propylamino)propyl] phenanthrene hydrochloride]
[4]; 16 mg/kg/day
  number of mice alive D + 18 / total: 7/7
[5]; 1 mg/kg/day, PO
  number of mice alive D + 18 / total: 2/7
[5]; 1 mg/kg/day, SC
  number of mice alive D + 18 / total: 1/7
[5]; 4 mg/kg/day, PO
  number of mice alive D + 18 / total: 6/7
  number of mice dead/day died: 1/8
[5]; 4 mg/kg/day, SC
  number of mice alive D + 18 / total: 7/7
[5]; 16 mg/kg/day, PO
  number of mice alive D + 18 / total: 7/7
[5]; 64 mg/kg/day, PO
  number of mice alive D + 18 / total: 7/7
[5]; 64 mg/kg/day, SC
  number of mice alive D + 18 / total: 7/7
[5]; 256 mg/kg/day, PO
  number of mice alive D + 18 / total: 6/7
  number of mice dead/day died: 1/4
[5]; 256 mg/kg/day, SC
  number of mice alive D + 18 / total: 7/7

## CCCCN(CCCC)CCC(O)c1cc2c(Cl)cc(Cl)cc2c2cc(C(F)(F)F)ccc12 (centres unmarked) [halofantrine, 1-[1,3-dichlorotrifluoromethyl-9-phenanthryl]-3-di-(n-butyl)-aminopropanolhydrochloride]
[1]; 1 mg/kg/day, PO
  number of mice alive day 21/total: 4/7
[1]; 1 mg/kg/day, SC
  number of mice alive day 21/total: 2/7
[1]; 4 mg/kg/day, PO
  number of mice alive day 21/total: 6/7
  number of mice dead/day died: 1/19
[1]; 4 mg/kg/day, SC
  number of mice alive day 21/total: 7/7
[1]; 16 mg/kg/day, PO
  number of mice alive day 21/total: 6/7
  number of mice dead/day died: 1/19
[1]; 16 mg/kg/day, SC
  number of mice alive day 21/total: 6/7
  number of mice dead/day died: 1/21
[4]; 1 mg/kg/day
  number of mice alive D + 18 / total: 5/7
[4]; 4 mg/kg/day
  number of mice alive D + 18 / total: 7/7
[4]; 16 mg/kg/day
  number of mice alive D + 18 / total: 7/7
[5]; 1 mg/kg/day, PO
  number of mice alive D + 18 / total: 4/7
  number of mice dead/day died: 3/18
[5]; 4 mg/kg/day, PO
  number of mice alive D + 18 / total: 6/7
  number of mice dead/day died: 1/18
[5]; 16 mg/kg/day, PO
  number of mice alive D + 18 / total: 6/6
[10]
  antimalarial efficacy: effective
[11]
  antimalarial efficacy: effective
[12]
  systemic bioavailability: problems with systemic bioavailability remained

## CCc1nc(N)nc(N)c1-c1ccc(Cl)cc1 [pyrimethamine]
Plasmodium berghei
  survival time: definite increases in survival time

## C=C[C@H]1C[N@@]2CC[C@H]1C[C@H]2[C@H](O)c1ccnc2ccc(OC)cc12 [quinine, reference compound]
[7]; read-out: IC50 (strain resistance)
  IC50: 800 nM
